# Experimental data reported in US7915276B2, “Berberrubine derivatives having antifungal activities” (priority 2006, dated 2011).
# How the values were obtained:
# [1] = biological target: T1, chitin synthase 1 of Candida albicans chs2 Δ chs 3 Δ (Candida albicans, UniProt P23316); assay: In vitro enzyme assay for chitin synthase 1 of Candida albicans (enzyme 1); format: biochemical; settings: relative to polyoxin D (50% inhibitory activity = value 5)
# T1 construct: Crude enzyme was prepared using the Candida albicans chs2 Δ chs 3 Δ mutant; endogenous in cells; host or cells: Candida albicans chs2Δ/chs2Δ chs3Δ/chs3Δ mutant; 130,000 x g membrane pellet
# How it was run: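 Trypsin-activated crude membrane chitin synthase 1 from C. albicans chs2Δ chs3Δ was incubated 90 min at 30 °C with 1.1 mM UDP-[14C]GlcNAc and 2 mM cobalt acetate in Tris-HCl pH 7.5. Filtered TCA precipitate was counted by scintillation; values are scores 1–8 against polyoxin D (5 = same concentration).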
# [2] = biological target: T2, chitin synthase 2 of Saccharomyces cerevisiae ECY38-38A(pAS6) (Saccharomyces cerevisiae, UniProt P14180); assay: In vitro enzyme assay for chitin synthase 2 of Saccharomyces cerevisiae (enzyme 2); format: biochemical; settings: relative to polyoxin D (50% inhibitory activity = value 5)
# T2 construct: made in house; host or cells: Saccharomyces cerevisiae ECY38-38A (chs1-23 chs2::LEU2 cal1/csd2) carrying plasmid pAS6, grown in galactose medium; 130,000 x g membrane pellet
# How it was run: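 Values are scores: 5 means 50% inhibition at the same concentration as polyoxin D, lower scores 2- to 16-fold higher concentration, higher scores ½ to ⅛. Radiolabel from 1.1 mM UDP-[14C]-GlcNAc was incorporated into TCA-insoluble chitin over 90 min at 30 °C (pH 7.5 Tris, 2 mM Co2+). The enzyme was a trypsin-activated membrane fraction from CHS2-only S. cerevisiae ECY38-38A(pAS6).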
# [3] = system: Aspergillus flavus ATCC 64025; assay: In vitro antifungal activity (MIC), NCCLS method; format: cell-based; settings: 48 hours
# How it was run: (§1)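 ATCC reference strains tested by NCCLS MIC method. Final inoculum 5×10^2 to 2.5×10^3 cell/mL over a two-fold dilution series; 48 h incubation.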
# [4] = system: Aspergillus fumigatus ATCC 16424; assay: In vitro antifungal activity (MIC), NCCLS method; format: cell-based; settings: 48 hours
# How it was run: as §1
# [5] = system: Aspergillus terreus ATCC 46941; assay: In vitro antifungal activity (MIC), NCCLS method; format: cell-based; settings: 48 hours
# How it was run: as §1
# [6] = system: Candida albicans A207 (clinical isolate); assay: In vitro antifungal activity (MIC), NCCLS method; format: cell-based; settings: 48 hours
# How it was run: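 According to NCCLS guidance, each compound is diluted two-fold and challenged with a fungal inoculum of 5×10^2 to 2.5×10^3 cell/mL (final). Incubation lasts 48 hours.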
# [7] = system: Candida albicans ATCC 10231; assay: In vitro antifungal activity (MIC), NCCLS method; format: cell-based; settings: 48 hours
# How it was run: (§2)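 Broth MIC by NCCLS two-fold dilution, final inoculum 5×10^2 to 2.5×10^3 cell/mL. Candida and Mucor strains incubated 48 hours.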
# [8] = system: Candida glabrata ATCC 48435; assay: In vitro antifungal activity (MIC), NCCLS method; format: cell-based; settings: Candida glabrata ATCC 48435; 48 hours
# How it was run: as §2
# [9] = system: Candida krusei ATCC 6258; assay: In vitro antifungal activity (MIC), NCCLS method; format: cell-based; settings: 48 hours
# How it was run: as §2
# [10] = system: Candida lusitaniae ATCC 42720; assay: In vitro antifungal activity (MIC), NCCLS method; format: cell-based; settings: 48 hours
# How it was run: as §2
# [11] = system: Candida parapsilosis ATCC 34136; assay: In vitro antifungal activity (MIC), NCCLS method; format: cell-based; settings: Candida parapsilosis ATCC 34136; 48 hours
# How it was run: as §2
# [12] = system: Candida tropicalis ATCC 13803; assay: In vitro antifungal activity (MIC), NCCLS method; format: cell-based; settings: 48 hours
# How it was run: as §2
# [13] = system: Cryptococcus neoformans ATCC 36556; assay: In vitro antifungal activity (MIC), NCCLS method; format: cell-based; settings: RPMI 1640 medium, 72 hours
# How it was run: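 Broth microdilution per NCCLS: two-fold serial dilutions of test compound inoculated with fungal suspension at a final 5×10^2 to 2.5×10^3 cell/mL. Strains other than Cryptococcus neoformans were incubated 48 hours before MIC reading.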
# [14] = system: Mucor ramosissimus ATCC 90286; assay: In vitro antifungal activity (MIC), NCCLS method; format: cell-based; settings: 48 hours
# How it was run: as §2
# T1 sequence (P23316 whole entry, stated change not applied): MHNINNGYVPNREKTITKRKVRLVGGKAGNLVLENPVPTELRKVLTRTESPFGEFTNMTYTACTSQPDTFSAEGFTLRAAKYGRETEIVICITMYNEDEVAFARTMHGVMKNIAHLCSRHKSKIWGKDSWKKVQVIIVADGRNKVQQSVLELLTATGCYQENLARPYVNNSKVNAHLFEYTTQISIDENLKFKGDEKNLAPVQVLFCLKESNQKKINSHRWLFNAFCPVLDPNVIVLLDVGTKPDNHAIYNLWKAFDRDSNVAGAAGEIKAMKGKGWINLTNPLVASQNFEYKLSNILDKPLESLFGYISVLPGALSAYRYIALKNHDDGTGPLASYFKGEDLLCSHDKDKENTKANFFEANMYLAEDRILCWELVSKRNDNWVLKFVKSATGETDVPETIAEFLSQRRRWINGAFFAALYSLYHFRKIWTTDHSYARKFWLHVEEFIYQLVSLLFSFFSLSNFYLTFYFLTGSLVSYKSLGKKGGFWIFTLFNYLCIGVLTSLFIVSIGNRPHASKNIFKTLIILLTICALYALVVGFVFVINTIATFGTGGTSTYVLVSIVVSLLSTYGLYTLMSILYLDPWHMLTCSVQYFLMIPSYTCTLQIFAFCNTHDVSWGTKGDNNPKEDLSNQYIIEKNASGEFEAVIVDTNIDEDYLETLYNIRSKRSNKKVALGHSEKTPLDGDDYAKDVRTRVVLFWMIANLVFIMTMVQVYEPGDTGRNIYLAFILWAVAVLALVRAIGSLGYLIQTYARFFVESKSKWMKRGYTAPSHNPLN
# T2 sequence (P14180 whole entry): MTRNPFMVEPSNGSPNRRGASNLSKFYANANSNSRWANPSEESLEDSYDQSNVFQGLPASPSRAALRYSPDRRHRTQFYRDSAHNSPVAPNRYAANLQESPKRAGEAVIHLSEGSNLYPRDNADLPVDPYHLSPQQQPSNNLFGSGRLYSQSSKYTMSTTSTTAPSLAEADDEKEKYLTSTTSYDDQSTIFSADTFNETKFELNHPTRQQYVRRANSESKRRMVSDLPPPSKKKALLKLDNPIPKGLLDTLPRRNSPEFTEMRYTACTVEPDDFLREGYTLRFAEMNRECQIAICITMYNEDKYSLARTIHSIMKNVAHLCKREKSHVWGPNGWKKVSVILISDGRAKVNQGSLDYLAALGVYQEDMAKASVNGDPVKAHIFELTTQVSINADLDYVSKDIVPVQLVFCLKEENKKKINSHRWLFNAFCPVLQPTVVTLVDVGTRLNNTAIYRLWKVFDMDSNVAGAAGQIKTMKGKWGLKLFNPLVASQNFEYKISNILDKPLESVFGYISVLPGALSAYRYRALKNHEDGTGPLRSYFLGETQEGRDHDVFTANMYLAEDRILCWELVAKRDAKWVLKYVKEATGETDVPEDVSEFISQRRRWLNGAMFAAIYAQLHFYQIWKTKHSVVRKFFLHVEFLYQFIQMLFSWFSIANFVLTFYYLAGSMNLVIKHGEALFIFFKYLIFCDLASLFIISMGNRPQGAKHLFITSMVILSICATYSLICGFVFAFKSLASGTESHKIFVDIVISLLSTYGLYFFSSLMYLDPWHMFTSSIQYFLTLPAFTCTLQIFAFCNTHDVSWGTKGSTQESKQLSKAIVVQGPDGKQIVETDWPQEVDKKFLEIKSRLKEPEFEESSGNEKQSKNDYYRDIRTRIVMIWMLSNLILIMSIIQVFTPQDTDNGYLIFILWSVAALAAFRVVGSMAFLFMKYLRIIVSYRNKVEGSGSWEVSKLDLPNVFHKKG
Substance,Relative activity Enzyme 1 [1],Relative activity Enzyme 2 [2],MIC (minimum inhibitory concentration) [3] [µg/mL],MIC (minimum inhibitory concentration) [4] [µg/mL],MIC (minimum inhibitory concentration) [5] [µg/mL],MIC (minimum inhibitory concentration) [6] [µg/mL],MIC (minimum inhibitory concentration) [7] [µg/mL],MIC (minimum inhibitory concentration) [8] [µg/mL],MIC (minimum inhibitory concentration) [9] [µg/mL],MIC (minimum inhibitory concentration) [10] [µg/mL],MIC (minimum inhibitory concentration) [11] [µg/mL],MIC (minimum inhibitory concentration) [12] [µg/mL],MIC (minimum inhibitory concentration) [13] [µg/mL],MIC (minimum inhibitory concentration) [14] [µg/mL]
13-(4-Isopropylbenzyl)-9-O-octylberberrubine chloride [Compound No. 52],"2 (Compounds having the inhibitory activity at 2-fold, 4-fold, 8-fold and 16-fold higher concentrations than that of polyoxin D were given the values of 4, 3, 2 and 1, respectively)","6 (compounds having the inhibitory activity at ½, ¼ and ⅛ lower concentrations than that of polyoxin D were given the values of 6, 7 and 8, respectively)",4,2,4,0.25,0.25,1,1,0.5,1,0.125,0.5,2
13-(4-Isopropylbenzyl)-9-O-octylberberrubine iodide [Compound No. 20],"3 (Compounds having the inhibitory activity at 2-fold, 4-fold, 8-fold and 16-fold higher concentrations than that of polyoxin D were given the values of 4, 3, 2 and 1, respectively)",5 (A compound having the same inhibitory activity as that of polyoxin D at the same concentration was given the value 5),4,2,4,0.25,0.25,2,1,0.5,2,0.125,1,2
13-(4-isopropylbenzyl)-9-O-crotylberberrubine chloride [Compound No. 56],"2 (Compounds having the inhibitory activity at 2-fold, 4-fold, 8-fold and 16-fold higher concentrations than that of polyoxin D were given the values of 4, 3, 2 and 1, respectively)","6 (compounds having the inhibitory activity at ½, ¼ and ⅛ lower concentrations than that of polyoxin D were given the values of 6, 7 and 8, respectively)",8,2,4,0.5,0.5,4,1,1,4,0.5,1,4
13-(4-tert-Butylbenzyl)-9-O-(3-hydroxypropyl)berberrubine chloride [Compound No. 43],"4 (Compounds having the inhibitory activity at 2-fold, 4-fold, 8-fold and 16-fold higher concentrations than that of polyoxin D were given the values of 4, 3, 2 and 1, respectively)","7 (compounds having the inhibitory activity at ½, ¼ and ⅛ lower concentrations than that of polyoxin D were given the values of 6, 7 and 8, respectively)",8,2,8,0.5,0.5,2,1,2,2,0.5,1,4
13-(4-tert-Butylbenzyl)-9-O-(3-hydroxypropyl)berberrubine iodide [Compound No. 11],"4 (Compounds having the inhibitory activity at 2-fold, 4-fold, 8-fold and 16-fold higher concentrations than that of polyoxin D were given the values of 4, 3, 2 and 1, respectively)","6 (compounds having the inhibitory activity at ½, ¼ and ⅛ lower concentrations than that of polyoxin D were given the values of 6, 7 and 8, respectively)",8,2,8,0.5,0.5,2,1,2,2,0.5,1,4
13-(4-tert-Butylbenzyl)-9-O-(4-isopropylbenzyl)berberrubine bromide [Compound No. 16],"3 (Compounds having the inhibitory activity at 2-fold, 4-fold, 8-fold and 16-fold higher concentrations than that of polyoxin D were given the values of 4, 3, 2 and 1, respectively)",5 (A compound having the same inhibitory activity as that of polyoxin D at the same concentration was given the value 5),8,4,8,1,1,2,2,4,8,1,2,8
